ChEMBL document CHEMBL1201862, “PubChem BioAssay data set” (2004)
Values joined by “and” are separate entries in the source; they are usually repeats but may differ in a detail not shown here. Equal values may be shown once.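 Interpolation was linear, between the two tested concentrations surrounding the appropriate level; five concentrations were tested over 48 hours in 96-well plates. GI50 = concentration required for 50% inhibition of growth.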 Active and inactive are the calls of the source. Rule as the data show it: active = GI50 up to about 1.1 µM and inactive = higher.

Columns and labels:
Assay in all cases: NCI anticancer screen, dose series, 48 h
A498 = system: A498
DU-145 = system: DU-145
EKVX = system: EKVX
KM12 = system: KM12
OVCAR-3 = system: OVCAR-3
OVCAR-5 = system: OVCAR-5
SF-539 = system: SF-539
SK-MEL-28 = system: SK-MEL-28
SK-MEL-2 = system: SK-MEL-2
SNB-75 = system: SNB-75
SR = system: SR
T47D = system: T47D
TK-10 = system: TK-10
786-0 = system: 786-0
A549 = system: A549
ACHN = system: ACHN
CCRF-CEM = system: CCRF-CEM
COLO 205 = system: COLO 205
HCT-116 = system: HCT-116
HCT-15 = system: HCT-15
HL-60 = system: HL-60
HOP-62 = system: HOP-62
HOP-92 = system: HOP-92
HT-29 = system: HT-29
Hs-578T = system: Hs-578T
IGROV-1 = system: IGROV-1
K562 = system: K562
LOX IMVI = system: LOX IMVI
M14 = system: M14
MCF7 = system: MCF7
MDA-MB-231 = system: MDA-MB-231
MDA-MB-435 = system: MDA-MB-435
MDA-N = system: MDA-N
MOLT-4 = system: MOLT-4
Malme-3M = system: Malme-3M
NCI-H226 = system: NCI-H226
NCI-H23 = system: NCI-H23
NCI-H522 = system: NCI-H522
NCI/ADR-RES = system: NCI/ADR-RES
OVCAR-4 = system: OVCAR-4
OVCAR-8 = system: OVCAR-8
PC-3 = system: PC-3
RPMI-8226 = system: RPMI-8226
SF-268 = system: SF-268
SF-295 = system: SF-295
SK-MEL-5 = system: SK-MEL-5
SK-OV-3 = system: SK-OV-3
SN12C = system: SN12C
SNB-19 = system: SNB-19
SW-620 = system: SW-620
U-251 = system: U-251
UACC-62 = system: UACC-62
UO-31 = system: UO-31

SMILES: CCCCCCCCCCCCCCCCP(=O)(O)OP(=O)(O)OCC1OC(n2ccc(N)nc2=O)C(O)C1O (centres undefined)
- GI50 (A498): 8.91 µM (inactive)
- GI50 (DU-145): 25.8 µM (inactive)
- GI50 (EKVX): > 100 µM (inactive)
- GI50 (KM12): 31.8 µM (inactive) and 38.4 µM (inactive)
- GI50 (OVCAR-3): 60 µM (inactive)
- GI50 (OVCAR-5): 18.5 µM (inactive) and 21.7 µM (inactive)
- GI50 (SF-539): 14.3 µM (inactive) and 22.9 µM (inactive)
- GI50 (SK-MEL-28): 32.4 µM (inactive) and 47.5 µM (inactive)
- GI50 (SK-MEL-2): > 100 µM (inactive) and 76.7 µM (inactive)
- GI50 (SNB-75): 16.9 µM (inactive) and 32.9 µM (inactive)
- GI50 (SR): 0.323 µM (active)
- GI50 (T47D): > 90.2 µM (inactive)
- GI50 (TK-10): 29.4 µM (inactive) and 41 µM (inactive)

SMILES: COc1ccc(/C=C2\N=C(SC)N(CN3CCOCC3)C2=O)cc1
- GI50 (786-0): 70.6 µM (inactive)
- GI50 (A498): 34 µM (inactive)
- GI50 (A549): 65.3 µM (inactive)
- GI50 (ACHN): 43.3 µM (inactive)
- GI50 (CCRF-CEM): 21.2 µM (inactive)
- GI50 (COLO 205): 36.3 µM (inactive)
- GI50 (DU-145): 65.9 µM (inactive)
- GI50 (EKVX): 55.2 µM (inactive)
- GI50 (HCT-116): 33.1 µM (inactive)
- GI50 (HCT-15): 30.7 µM
- GI50 (HL-60): 56.9 µM (inactive)
- GI50 (HOP-62): 69.7 µM (inactive)
- GI50 (HOP-92): 5.38 µM (inactive)
- GI50 (HT-29): 27.5 µM (inactive)
- GI50 (Hs-578T): 59.2 µM (inactive)
- GI50 (IGROV-1): 37.5 µM (inactive)
- GI50 (K562): 39 µM (inactive)
- GI50 (KM12): 78.3 µM (inactive)
- GI50 (LOX IMVI): 37.2 µM (inactive)
- GI50 (M14): 55 µM (inactive)
- GI50 (MCF7): 16 µM (inactive)
- GI50 (MDA-MB-231): > 100 µM (inactive)
- GI50 (MDA-MB-435): 74.8 µM (inactive)
- GI50 (MDA-N): 71.1 µM (inactive)
- GI50 (MOLT-4): 36.4 µM (inactive)
- GI50 (Malme-3M): 72.6 µM (inactive)
- GI50 (NCI-H226): 29.2 µM (inactive)
- GI50 (NCI-H23): > 100 µM (inactive)
- GI50 (NCI-H522): 82.8 µM (inactive)
- GI50 (NCI/ADR-RES): 80.9 µM (inactive)
- GI50 (OVCAR-3): 90.6 µM (inactive)
- GI50 (OVCAR-4): 18.6 µM (inactive)
- GI50 (OVCAR-5): > 100 µM (inactive)
- GI50 (OVCAR-8): 48.2 µM (inactive)
- GI50 (PC-3): 49.2 µM (inactive)
- GI50 (RPMI-8226): 24.8 µM (inactive)
- GI50 (SF-268): 48 µM (inactive)
- GI50 (SF-295): 98.9 µM (inactive)
- GI50 (SK-MEL-28): > 100 µM (inactive)
- GI50 (SK-MEL-2): > 100 µM (inactive)
- GI50 (SK-MEL-5): 47.3 µM (inactive)
- GI50 (SK-OV-3): > 100 µM (inactive)
- GI50 (SN12C): > 100 µM (inactive)
- GI50 (SNB-19): 84.5 µM (inactive)
- GI50 (SNB-75): 60.7 µM (inactive)
- GI50 (SR): 30.8 µM (inactive)
- GI50 (SW-620): 22 µM (inactive)
- GI50 (TK-10): 56.5 µM (inactive)
- GI50 (U-251): 51.6 µM (inactive)
- GI50 (UACC-62): 40.2 µM (inactive)
- GI50 (UO-31): 49.8 µM (inactive)
